{"source": "patent US11202743B2", "about": "“Personal care compositions comprising fatty acid amide derivatives” (Conopco, Inc., priority 2016, dated 2021)", "key": {"[1]": {"target": "human CB1 receptor (Homo sapiens (Human), UniProt P21554)", "sequence (P21554 whole entry)": "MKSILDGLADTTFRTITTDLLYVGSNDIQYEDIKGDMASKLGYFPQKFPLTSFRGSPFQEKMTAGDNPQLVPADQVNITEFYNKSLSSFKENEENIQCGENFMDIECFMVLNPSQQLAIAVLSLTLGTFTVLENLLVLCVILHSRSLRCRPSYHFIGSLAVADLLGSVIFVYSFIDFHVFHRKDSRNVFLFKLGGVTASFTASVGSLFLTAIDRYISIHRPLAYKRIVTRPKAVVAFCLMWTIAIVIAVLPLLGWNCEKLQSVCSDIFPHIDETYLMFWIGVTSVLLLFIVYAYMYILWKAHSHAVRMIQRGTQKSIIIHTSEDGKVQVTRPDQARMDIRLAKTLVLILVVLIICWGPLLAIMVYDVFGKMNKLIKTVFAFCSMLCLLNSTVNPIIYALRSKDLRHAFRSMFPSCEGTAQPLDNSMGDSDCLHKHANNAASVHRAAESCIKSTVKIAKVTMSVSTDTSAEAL", "test": "CB1 receptor binding assay, displacement of 3H CP-55,940 from membrane preparation", "details": "inhibition of 3H CP-55,940 binding (1 nM), human CB1 membranes", "description": "(§1) The ability of the compounds according to some embodiments of the present invention to inhibit a radiolabeled cannabinoid ligand, CP-55,940, [Side chain-2,3,4(N)-3H(N)]-(Perkin-Elmer Cat. # NET1051) to either the human CB1 receptor or CB2 receptor was determined according to the manufacturer's instructions in the commercially available membrane preparations from Perkin Elmer (Cat Nos. RBHCB1M400UA and RBXCB2M400UA). Briefly, pre-treatment of the glass fiber membrane of a Matrix 96 well GFC filtration microtiter plate was done in order to help reduce non-specific binding of the radioligand to the GFC membrane. This was done by adding 150 μl of 0.5% polyethylimine (PEI) to each well and letting this remain in the plate for at least 4 hours before using it to terminate the binding reaction. The actual binding reaction was performed in a polypropylene (PP) round bottom 96-well microtiter plate. Briefly, 55 μl of assay buffer (50 mM TRIS pH7.4, 2.5 mM EGTA, 5 mM MgCl2, 120 mM NaCl, 0.1% Fatty acid free BSA) was added to each well, followed by 20 μl of a 0.4 mg/ml CB1 or CB2 membrane suspension (8 μg membrane per well). To initiate the reaction, 20 μl of 5 nM ^3H CP-55,940 (1 nM final concentration) was added to each well. Nonspecific binding was defined in the presence of 20 μM unlabeled WIN 55212 (Sigma cat. W-102). ACEA was routinely used as a positive control for both assays. The plate was shaken on an orbital plate shaker and the binding reaction proceeded until equilibrium was reached after 3 hours at room temperature. Using a Multiscreen vacuum manifold, the PEI was filtered through the GFC filter plate. The binding reaction in the PP plate was mixed by aspirating the reaction contents of each well and dispensing back into the plate. This was repeated 4 times and then 75 μl of the reaction mixture was transferred to the GFC plate. This procedure could be done row by row with the use of a multichannel pipette, or all at once if using automation. Once the entire content of the PP plate was transferred to the GFC plate, the binding reactions were terminated by filtering thru the GFC plate. The filter plate was then washed by adding 100 μl ice-cold wash buffer 50 mM TRIS pH 7.4, 2.5 mM EGTA, 5 mM MgCl2, 120 mM NaCl, 2% Fatty acid free BSA) to each well and filtering through. This was repeated 8 times, after which the filter mat was allowed to dry. Once the filter mat was dry, 50 μl of Microscint scintillation cocktail was added to each well, allowed to sit for 15-20 min, and the plate read on a Microbeta2 scintillation counter.\n(§2) The lower the IC50 value, the higher the binding."}, "[2]": {"target": "recombinant human FAAH enzyme (Homo sapiens (Human), UniProt O00519)", "sequence (O00519 whole entry)": "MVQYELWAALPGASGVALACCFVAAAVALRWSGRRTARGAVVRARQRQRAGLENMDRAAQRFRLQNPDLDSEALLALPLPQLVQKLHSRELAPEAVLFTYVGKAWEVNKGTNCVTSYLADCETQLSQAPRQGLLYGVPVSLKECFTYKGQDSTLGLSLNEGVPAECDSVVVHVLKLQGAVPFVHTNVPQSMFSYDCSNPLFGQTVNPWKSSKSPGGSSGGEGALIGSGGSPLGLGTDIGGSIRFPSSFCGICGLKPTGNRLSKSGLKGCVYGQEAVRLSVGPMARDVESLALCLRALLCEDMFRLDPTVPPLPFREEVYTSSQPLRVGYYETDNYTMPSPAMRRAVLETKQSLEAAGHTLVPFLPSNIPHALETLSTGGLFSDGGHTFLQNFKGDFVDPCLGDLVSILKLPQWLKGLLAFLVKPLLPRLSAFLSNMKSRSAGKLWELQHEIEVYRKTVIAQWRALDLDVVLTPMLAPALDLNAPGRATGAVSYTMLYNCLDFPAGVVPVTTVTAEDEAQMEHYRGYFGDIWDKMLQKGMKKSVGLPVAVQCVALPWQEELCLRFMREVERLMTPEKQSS", "test": "FAAH inhibition assay (Cayman Chemicals kit, AMC-arachidonoyl amide hydrolysis, fluorescence)", "assay_type": "biochemical", "description": "The ability of the compounds according to some embodiments of the present invention to inhibit FAAH was determined according to the methods disclosed a commercially available kit from Cayman Chemicals (Cayman Cat. No. 10005196). The kit utilizes recombinant human FAAH enzyme which hydrolyzes AMC-arachidonoyl amide resulting in the release of the fluorescent product, 7-amino-4-methylcoumarin (AMC). The fluorophore was detected via fluorescence, using an excitation wavelength of 340-360 nm and an emission wavelength of 450-465 nm. The assay was followed as described in the kit manual, which can be found on the webpage of Cayman Chemicals."}, "[3]": {"target": "human CB2 receptor (Homo sapiens (Human), UniProt P34972)", "sequence (P34972 whole entry)": "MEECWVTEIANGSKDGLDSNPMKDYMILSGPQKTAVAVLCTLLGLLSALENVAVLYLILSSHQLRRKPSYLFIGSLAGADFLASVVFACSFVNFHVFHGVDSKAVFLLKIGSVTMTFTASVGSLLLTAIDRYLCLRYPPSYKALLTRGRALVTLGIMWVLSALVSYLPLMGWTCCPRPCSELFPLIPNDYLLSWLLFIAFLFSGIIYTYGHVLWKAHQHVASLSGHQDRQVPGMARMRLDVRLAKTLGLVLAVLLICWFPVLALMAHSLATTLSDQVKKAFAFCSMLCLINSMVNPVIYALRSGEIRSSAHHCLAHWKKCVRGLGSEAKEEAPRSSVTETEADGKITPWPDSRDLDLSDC", "test": "CB2 receptor binding assay, displacement of 3H CP-55,940 from membrane preparation", "details": "inhibition of 3H CP-55,940 binding (1 nM), human CB2 membranes", "description": "as §1, §2"}, "[4]": {"test": "Effect on solubility of 12 HSA (visual observation)", "assay_type": "physicochemical"}, "[5]": {"test_system": "serotonin-induced scratches (itch)", "details": "mice; cited from earlier work"}, "[6]": {"details": "41.18% Tween 60, 29.41% 12-HSA, 29.41% compound"}, "[7]": {"details": "41.67% Tween 60, 41.67% 12-HSA, 16.67% compound"}, "[8]": {"details": "41.18% Tween 20, 29.41% 12-HSA, 29.41% compound"}, "[9]": {"details": "48.28% Tween 20, 34.48% 12-HSA, 17.24% compound"}}, "data": [{"compound": "CCCCC/C=C\\C=C\\CCCCCCCCC(=O)NC(CCC(=O)O)C(=O)O", "note": "(centres unmarked) [Compound 11]", "values": [{"measurement": "CB1 IC50", "setting": "[1]", "value": "No binding"}, {"measurement": "FAAH IC50", "setting": "[2]", "value": "No binding"}, {"measurement": "CB2 IC50", "setting": "[3]", "value": "No binding"}, {"measurement": "Observation", "setting": "[4]; [6]", "value": "translucent/clear"}, {"measurement": "Observation", "setting": "[4]; [7]", "value": "translucent"}]}, {"compound": "CCCCC/C=C\\C=C\\CCCCCCCCC(=O)NC(Cc1ccccc1)C(=O)O", "note": "(centres unmarked) [Compound 8]", "values": [{"measurement": "CB1 IC50", "setting": "[1]", "value": "No binding"}, {"measurement": "IC50", "setting": "[2]", "value": 11, "unit": "µM"}, {"measurement": "CB2 IC50", "setting": "[3]", "value": "No binding"}]}, {"compound": "CCCCC/C=C\\C=C\\CCCCCCCCC(=O)NCC(Cc1c[nH]cn1)C(=O)O", "note": "(centres unmarked) [Compound 9]", "values": [{"measurement": "IC50", "setting": "[2]", "value": 13, "unit": "µM"}, {"measurement": "IC50", "setting": "[3]", "value": 38, "unit": "µM"}]}, {"compound": "CCCCC/C=C\\C=C\\CCCCCCCCC(=O)NCC(=O)O", "note": "[Compound 6]", "values": [{"measurement": "CB1 IC50", "setting": "[1]", "value": "No binding"}, {"measurement": "IC50", "setting": "[2]", "value": 3.5, "unit": "µM"}, {"measurement": "CB2 IC50", "setting": "[3]", "value": "No binding"}]}, {"compound": "NC(=O)c1cccc(-c2cccc(OC(=O)NC3CCCCC3)c2)c1", "note": "[URB597]", "values": [{"measurement": "Serotonin-induced scratches (itch)", "setting": "[5]", "value": "attenuate"}]}, {"compound": "CCCCCCC(O)CCCCCCCCCCC(=O)NCC(=O)O", "note": "(centres unmarked) [Compound 18]", "values": [{"measurement": "CB1 IC50", "setting": "[1]", "value": "no binding activities"}, {"measurement": "IC50", "setting": "[2]", "value": 46, "unit": "µM"}, {"measurement": "CB2 IC50", "setting": "[3]", "value": "no binding activities"}, {"measurement": "Observation", "setting": "[4]; 48.39% Tween 60, 48.39% 12-HSA, 3.23% compound", "value": "translucent"}]}, {"compound": "CCCCCCC(O)CCCCCCCCCCC(=O)NC(CCC(=O)O)C(=O)O", "note": "(centres unmarked) [Compound 19]", "values": [{"measurement": "Observation", "setting": "[4]; 50.00% Tween 60, 35.71% 12-HSA, 14.29% compound", "value": "translucent"}]}, {"compound": "CCCCCC/C=C/C=C\\CCCCCCCC(=O)NC(Cc1ccccc1)C(=O)O", "note": "(centres unmarked) [Compound 7]", "values": [{"measurement": "CB1 IC50", "setting": "[1]", "value": "No binding"}, {"measurement": "IC50", "setting": "[2]", "value": 11, "unit": "µM"}, {"measurement": "CB2 IC50", "setting": "[3]", "value": "No binding"}]}, {"compound": "CCCCCCC(O)C/C=C\\CCCCCCCC(=O)NC(CCC(=O)O)C(=O)O", "note": "(centres unmarked) [Compound 15]", "values": [{"measurement": "Observation", "setting": "[4]; [6]", "value": "translucent"}, {"measurement": "Observation", "setting": "[4]; [7]", "value": "translucent"}]}, {"compound": "CCCCCCC(O)C/C=C\\CCCCCCCC(=O)NC(C)C(=O)O", "note": "(centres unmarked) [Compound 12]", "values": [{"measurement": "CB1 IC50", "setting": "[1]", "value": "no binding activities"}, {"measurement": "IC50", "setting": "[2]", "value": 42, "unit": "µM"}, {"measurement": "CB2 IC50", "setting": "[3]", "value": "no binding activities"}, {"measurement": "Observation", "setting": "[4]; [8]", "value": "translucent"}, {"measurement": "Observation", "setting": "[4]; [6]", "value": "translucent"}]}, {"compound": "CCCCCC/C=C/C=C/CCCCCCCC(=O)NC(CC(=O)O)Cc1c[nH]cn1", "note": "(centres unmarked) [Compound 10]", "values": [{"measurement": "IC50", "setting": "[2]", "value": 13, "unit": "µM"}, {"measurement": "IC50", "setting": "[3]", "value": 38, "unit": "µM"}]}, {"compound": "conjugated linoleyl glycinate acid [Compound 1]", "values": [{"measurement": "CB1 IC50", "setting": "[1]", "value": "No binding"}, {"measurement": "IC50", "setting": "[2]", "value": 2.6, "unit": "µM"}, {"measurement": "CB2 IC50", "setting": "[3]", "value": "No binding"}]}, {"compound": "CCCCC/C=C\\C=C\\CCCCCCCCC(=O)NC(C)C(=O)O", "note": "(centres unmarked) [Compound 2]", "values": [{"measurement": "CB1 IC50", "setting": "[1]", "value": "No binding"}, {"measurement": "IC50", "setting": "[2]", "value": 2.6, "unit": "µM"}, {"measurement": "CB2 IC50", "setting": "[3]", "value": "No binding"}]}, {"compound": "CCCCCCC(O)C/C=C\\CCCCCCCC(=O)NC(C(=O)O)C(C)CC", "note": "(centres unmarked) [Compound 13]", "values": [{"measurement": "Observation", "setting": "[4]; [6]", "value": "translucent"}]}, {"compound": "CCCCCCC(O)CCCCCCCCCCC(=O)NC(C)C(=O)O", "note": "(centres unmarked) [Compound 17]", "values": [{"measurement": "CB1 IC50", "setting": "[1]", "value": "no binding activities"}, {"measurement": "IC50", "setting": "[2]", "value": 40, "unit": "µM"}, {"measurement": "CB2 IC50", "setting": "[3]", "value": "no binding activities"}]}, {"compound": "CCCCC/C=C\\C=C\\CCCCCCCCC(=O)NCCC(=O)O", "note": "[Compound 4]", "values": [{"measurement": "IC50", "setting": "[1]", "value": 22, "unit": "µM"}, {"measurement": "IC50", "setting": "[2]", "value": 2.8, "unit": "µM"}, {"measurement": "IC50", "setting": "[3]", "value": 26, "unit": "µM"}]}, {"compound": "CCCCCCC(O)CCCCCCCCCCC(=O)NC(CC(=O)O)C(=O)O", "note": "(centres unmarked) [Compound 16]", "values": [{"measurement": "Observation", "setting": "[4]; 45.16% Tween 60, 38.71% 12-HSA, 16.13% compound", "value": "translucent"}]}, {"compound": "CCCCCCC(O)C/C=C\\CCCCCCCC(=O)NCC(=O)O", "note": "(centres unmarked) [Compound 14]", "values": [{"measurement": "CB1 IC50", "setting": "[1]", "value": "no binding activities"}, {"measurement": "IC50", "setting": "[2]", "value": 26, "unit": "µM"}, {"measurement": "CB2 IC50", "setting": "[3]", "value": "no binding activities"}, {"measurement": "Observation", "setting": "[4]; [8]", "value": "translucent"}, {"measurement": "Observation", "setting": "[4]; [6]", "value": "translucent"}]}, {"compound": "CCCCCC/C=C/C=C/CCCCCCCC(=O)NCCC(=O)O", "note": "[Compound 3]", "values": [{"measurement": "IC50", "setting": "[1]", "value": 22, "unit": "µM"}, {"measurement": "IC50", "setting": "[2]", "value": 2.8, "unit": "µM"}, {"measurement": "IC50", "setting": "[3]", "value": 26, "unit": "µM"}, {"measurement": "Observation", "setting": "[4]; [9]", "value": "translucent"}]}, {"compound": "CCCCCC/C=C/C=C\\CCCCCCCC(=O)NCC(=O)O", "note": "[Compound 5]", "values": [{"measurement": "CB1 IC50", "setting": "[1]", "value": "No binding"}, {"measurement": "IC50", "setting": "[2]", "value": 3.5, "unit": "µM"}, {"measurement": "CB2 IC50", "setting": "[3]", "value": "No binding"}, {"measurement": "Observation", "setting": "[4]; 33.33% Tween 20, 41.67% 12-HSA, […] compound", "value": "translucent"}, {"measurement": "Observation", "setting": "[4]; 40% Tween 20, 30% 12-HSA, 10% compound", "value": "translucent"}, {"measurement": "Observation", "setting": "[4]; 40.00% Tween 20, 40% 12-HSA, 20% compound", "value": "translucent"}, {"measurement": "Observation", "setting": "[4]; [9]", "value": "translucent"}, {"measurement": "Observation", "setting": "[4]; 48.28% Tween 60, 34.48% 12-HSA, 17.24% compound", "value": "translucent"}]}]}
